Experimental data reported in patent US20120071475A1, “UREA DERIVATIVES HAVING PI3K-INHIBITING ACTIVITY” (SHIONOGI & CO., LTD., priority 2009, published 2012).

How the values were obtained:
[1] = system: CYP1A2, CYP2C9, CYP2C19, CYP2D6 and CYP3A4 (one value for the five species); assay: CYP inhibition test, five CYP species together (5CYPs_IC50; pooled human liver microsome); type: in vitro ADME; details: human, microsomes
Source text: O-de-ethylation of 7-ethoxyresorufin (CYP1A2), methyl-hydroxylation of tolbutamide (CYP2C9), 4′-hydroxylation of mephenyloin (CYP2C19), O-demethylation of dextromethorphan (CYP2D6), and hydroxylation of terfenadine (CYP3A4), which are typical substrate for metabolic reactions of human main CYP5 molecular species (CYP1A2, 2C9, 2C19, 2D6, and 3A4), were adopted as indexes.
The reaction conditions are as follows: substrate: 0.5 μmol/L of ethoxyresorufin (CYP1A2), 100 μmol/L of tolbutamide (CYP2C9), 50 μmol/L of S-mephenyloin (CYP2C19), 5 μmol/L of dextromethorphan (CYP2D6), and 1 μmol/L of terfenadine (CYP3A4); reaction time; 15 minutes; reaction temperature: 37° C.; enzyme: pooled human liver microsome 0.2 mg protein/mL; test drug concentration: 1, 5, 10, and 20 μmol/L (4 points).
In a 96-well plate, as a reaction solution, five kinds of substrates, a human liver microsome, and a test drug were added to 50 mmol/L Hepes buffer solution in the aforementioned ratio. A coenzyme NADPH was added to start a metabolic reaction, which is an index. After reacting at 37° C. for 15 minutes, a solution of methanol/acetonitrile (1/1 (v/v)) was added to quench the reaction. After centrifugation at 3000 rpm for 15 minutes, resorufin (CYP1A2 metabolite) in the supernatant was quantitated with a fluorescence multilabel counter, and hydroxylated tolbutamide (CYP2C9 metabolite), 4′-hydroxylated mephenyloin (CYP2C19 metabolite), […], terfenadine in alcohol form (CYP3A4 metabolite) were quantitated with LC/MS/MS.
The case wherein only DMSO (a solvent which dissolved a drug) was added to a reaction system was defined as a control (100%). When a test drug solution was added, the remaining activity (%) at each concentration was calculated, and then IC50 was calculated with a concentration and an inhibition ratio by an inverse estimation using a logistic model.

CYP3A4 = target: T1, CYP3A4 (Homo sapiens, UniProt P08684); assay: CYP3A4 fluorescence MBI test; type: in vitro ADME; details: difference in IC50 with 0 or 30 minutes pre-reaction; CYP3A4 expressed in E. coli, substrate 7-BFC
T1 construct: host or cells: E. coli
T1 sequence (P08684 whole entry): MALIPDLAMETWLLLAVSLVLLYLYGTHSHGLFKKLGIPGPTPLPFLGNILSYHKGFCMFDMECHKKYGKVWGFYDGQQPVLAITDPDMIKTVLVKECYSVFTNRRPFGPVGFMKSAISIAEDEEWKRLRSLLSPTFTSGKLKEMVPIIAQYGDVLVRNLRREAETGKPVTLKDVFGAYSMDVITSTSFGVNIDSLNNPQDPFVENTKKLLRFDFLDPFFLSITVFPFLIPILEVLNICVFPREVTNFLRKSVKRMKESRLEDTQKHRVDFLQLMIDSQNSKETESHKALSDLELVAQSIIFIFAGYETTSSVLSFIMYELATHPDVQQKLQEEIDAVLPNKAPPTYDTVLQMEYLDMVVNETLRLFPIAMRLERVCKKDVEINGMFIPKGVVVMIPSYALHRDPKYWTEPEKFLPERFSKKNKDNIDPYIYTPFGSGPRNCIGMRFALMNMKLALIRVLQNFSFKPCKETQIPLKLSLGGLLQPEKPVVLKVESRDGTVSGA
How it was run: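 E. coli-expressed CYP3A4 debenzylating 5.6 μmol/L 7-BFC to fluorescent 7-HFC (Ex 420/Em 535 nm) in K-Pi pH 7.4 at 25° C, 15 min reaction. NADPH pre-incubation of 0 or 30 min, with 10-fold dilution before reaction. IC50 from 0.625–20 μmol/L (6 points); (+) for an IC50 shift ≥5 μmol/L, (−) for ≤3 μmol/L.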

PI3Kγ [2] = target: T2, PI3Kγ (Homo sapiens, UniProt P48736); assay: PI3Kγ inhibitory activity (PI3-kinase HTRF assay, inhibition ratio); type: biochemical; details: 0.5 h, compound at 10 μmol/L; read-out: PI3Kg Inhibition Ratio % (10 μM)
T2 sequence (P48736 whole entry, species assumed): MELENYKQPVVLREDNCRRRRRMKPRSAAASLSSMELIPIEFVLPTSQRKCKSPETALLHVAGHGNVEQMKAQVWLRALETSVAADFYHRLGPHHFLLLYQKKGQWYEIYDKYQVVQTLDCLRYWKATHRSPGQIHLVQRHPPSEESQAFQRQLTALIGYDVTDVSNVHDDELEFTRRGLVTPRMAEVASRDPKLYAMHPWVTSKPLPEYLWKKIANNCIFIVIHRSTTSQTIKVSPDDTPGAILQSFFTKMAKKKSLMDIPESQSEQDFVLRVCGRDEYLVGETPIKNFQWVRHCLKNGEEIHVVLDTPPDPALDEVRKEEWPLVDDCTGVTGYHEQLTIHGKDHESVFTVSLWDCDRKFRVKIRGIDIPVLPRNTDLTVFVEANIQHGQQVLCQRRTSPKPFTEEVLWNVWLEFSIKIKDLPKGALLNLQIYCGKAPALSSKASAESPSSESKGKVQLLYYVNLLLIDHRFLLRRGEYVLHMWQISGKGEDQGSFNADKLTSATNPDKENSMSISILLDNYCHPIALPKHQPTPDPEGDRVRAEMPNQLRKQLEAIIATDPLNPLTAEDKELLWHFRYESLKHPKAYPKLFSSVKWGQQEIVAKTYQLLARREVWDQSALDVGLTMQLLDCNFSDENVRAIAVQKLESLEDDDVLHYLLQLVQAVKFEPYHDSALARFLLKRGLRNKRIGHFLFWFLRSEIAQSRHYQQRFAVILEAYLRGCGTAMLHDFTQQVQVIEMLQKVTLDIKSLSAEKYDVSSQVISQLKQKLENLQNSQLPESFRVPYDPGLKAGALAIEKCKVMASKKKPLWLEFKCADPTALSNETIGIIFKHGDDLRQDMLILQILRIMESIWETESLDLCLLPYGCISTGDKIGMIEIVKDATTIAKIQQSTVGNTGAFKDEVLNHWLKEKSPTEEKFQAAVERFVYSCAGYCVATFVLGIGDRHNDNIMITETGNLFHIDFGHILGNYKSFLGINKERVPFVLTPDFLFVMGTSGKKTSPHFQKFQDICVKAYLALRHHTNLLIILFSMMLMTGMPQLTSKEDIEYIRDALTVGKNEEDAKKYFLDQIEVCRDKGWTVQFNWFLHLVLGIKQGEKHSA
How it was run: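 Compound at 10 μmol/L preincubated 10 min with PI3Kγ and PIP2 substrate, then reacted with ATP for 30 minutes at room temperature; the compound, substrate and ATP figures as printed (40 μmol/L each) are solution concentrations. HTRF 665/620 nm ratio read after 18 hours. Inhibition ratio calculated against no-compound (100%) and no-enzyme (0%) controls.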

hERG channel (IKr) = target: T3, hERG channel (IKr) (Homo sapiens, UniProt Q12809); assay: hERG test (whole-cell patch-clamp, IKr in HEK293 cells); type: cell-based; details: human, HEK293 cells expressing hERG channel, pH 7.4, inhibition of maximum tail current (IKr), compound 1 μM
T3 construct: expressed in transfected cells; host or cells: HEK293
T3 sequence (Q12809 whole entry): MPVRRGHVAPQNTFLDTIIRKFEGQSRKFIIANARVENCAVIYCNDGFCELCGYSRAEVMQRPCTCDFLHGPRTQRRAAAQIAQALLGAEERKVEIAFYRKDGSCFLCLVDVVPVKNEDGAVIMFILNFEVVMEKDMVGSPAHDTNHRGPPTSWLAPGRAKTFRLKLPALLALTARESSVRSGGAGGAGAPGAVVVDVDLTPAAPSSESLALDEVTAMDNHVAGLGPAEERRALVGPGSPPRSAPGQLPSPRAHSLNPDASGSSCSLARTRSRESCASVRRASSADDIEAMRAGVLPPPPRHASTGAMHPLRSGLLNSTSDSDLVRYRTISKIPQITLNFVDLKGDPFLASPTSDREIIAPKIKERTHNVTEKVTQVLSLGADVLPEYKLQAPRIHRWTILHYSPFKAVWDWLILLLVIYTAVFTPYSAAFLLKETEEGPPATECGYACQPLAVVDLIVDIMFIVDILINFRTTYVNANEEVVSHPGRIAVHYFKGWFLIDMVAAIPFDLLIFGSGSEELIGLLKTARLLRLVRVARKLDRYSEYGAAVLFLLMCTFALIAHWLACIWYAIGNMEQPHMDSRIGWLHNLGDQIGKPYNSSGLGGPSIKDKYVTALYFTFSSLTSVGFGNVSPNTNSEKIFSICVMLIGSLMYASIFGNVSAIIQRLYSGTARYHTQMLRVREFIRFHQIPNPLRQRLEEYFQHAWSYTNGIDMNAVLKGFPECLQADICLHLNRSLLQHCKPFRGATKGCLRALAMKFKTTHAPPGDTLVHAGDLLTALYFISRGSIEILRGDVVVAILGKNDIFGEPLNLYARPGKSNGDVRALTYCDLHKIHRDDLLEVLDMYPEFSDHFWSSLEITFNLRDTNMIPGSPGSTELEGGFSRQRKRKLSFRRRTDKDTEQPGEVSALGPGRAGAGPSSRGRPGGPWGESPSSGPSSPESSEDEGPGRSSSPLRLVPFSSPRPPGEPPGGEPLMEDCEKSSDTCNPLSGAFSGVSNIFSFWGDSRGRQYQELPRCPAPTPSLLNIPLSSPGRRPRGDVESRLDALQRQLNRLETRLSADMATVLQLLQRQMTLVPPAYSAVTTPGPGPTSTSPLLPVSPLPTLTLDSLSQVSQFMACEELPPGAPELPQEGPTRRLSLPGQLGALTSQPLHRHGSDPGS
Source text: For the purpose of risk evaluation of QT interval extension of electrocardiogram, the activity on delayed rectification K^+ current (IKr), which plays an important role in a cardiac ventricle repolarization process, was examined using the HEK293 cell that was made to express human ether-a-go-go related gene (hERG) channel.
Using an automatic patch-clamp system (PatchXpress 7000A, Axon Instruments Inc.), by a whole-cell patch-clamp method, after the cell was maintained at a membrane potential of −80 mV, IKr induced upon applying depolarizing stimulation of +50 mV for 2 seconds and further applying repolarizing stimulation of −50 mV for 2 seconds was recorded. After generated electric current became stable, a test substance dissolved at an intended concentration in extracellular fluid (137 mmol/L NaCl, 4 mmol/L KCl, 1.8 mmol/L CaCl2.2H2O, 1 mmol/L MgCl2.6H2O, 10 mmol/L glucose, 10 mmol/L HEPES (4-(2-hydroxyethyl)-1-piperazineethanesulfonic acid), pH=7.4) was applied to the cell for 10 minutes under room temperature condition. From the obtained IKr, the absolute value of the maximum tail current was measured using analysis software (DataXpress ver. 1, Molecular Devices Corporation) and the value of the electric current in a maintained membrane potential as baseline. Moreover, an inhibition ratio for the maximum tail current prior to the application of the test substance was calculated and then compared with a group of media-application (0.1% dimethylsulfoxide solution) to evaluate influence of the test substance on IKr.

AKT phosphorylation = AKT phosphorylation inhibitory activity in MCP-1 stimulated THP-1 cells (sandwich ELISA); type: cell-based, Human; details: Homo sapiens, compound at 1 μmol/L, MCP-1 stimulation, read-out: AKT phosphorylation inhibition ratio
Procedure: (1) The AKT phosphorylation inhibitory activity of a compound was evaluated according to the following procedure. (2) Human monocyte-like cell line THP-1 was washed with RPMI-1640 media, incubated in the presence of 5% CO2 at 37° C. for 3 hours, washed with Hank's balanced salt solution (HBSS), adjusted to a cell concentration of 6.7×10^6/mL, and then used in an experiment. (3) 30 μL of the cell suspension and 60 μL of each compound solution containing 0.2% DMSO/HBSS were mixed and then preincubated at 37° C. for 5 minutes. 30 μL of HBSS containing 1.2 μg/mL of MCP-1 was added thereto and then incubated for 60 seconds at 37° C. (4) 30 μL of a cell lysate (the final concentrations: 20 mmol/L Tris-HCl (pH 7.5), 150 mmol/L NaCl, 1 mmol/L EDTA, 1 mmol/L EDTA, 1% Triton X-100, 2.5 mmol/L sodium pyrophosphate, 1 mmol/L β-glycerophosphate, 1 mmol/L Na3VO4, 1 μg/ml leupeptin, 50 nmol/L APMSF) was added thereto to lyse cells. (5) The amount of AKT phosphorylation in the cell solution was measured by sandwich ELISA method using anti-Phospho-Akt (Ser473) antibody and anti-AKT1 antibody. (6) Anti-Phospho-Akt (Ser473) antibodies or anti-AKT1 antibodies were immobilized onto the solid phase of a micro well plate. The prepared cell lysate was added to the micro well plate, incubated, and then washed with ELISA wash solution. (7) An anti-AKT1 antibody or anti-Phospho-Akt (Ser473) antibody, which forms a counterpart to an antibody immobilized on the solid phase, was added thereto, incubated, washed similarly, and then reacted with an HRP-labeled anti-mouse IgG antibody. (8) After incubating for 30 minutes and then washing similarly, 100 μL of TMB (3,3′,5,5″-tetramethylbenzidine) was added thereto, followed by reacting for 30 minutes. (9) 100 μL of stop solution was added to quench the color reaction, and then the absorbance at 450 nm was measured. (10) The amount of AKT phosphorylation in a sample in the absence of a compound was defined as 100% activity, and the amount of AKT phosphorylation in a sample in the absence of MCP-1 was defined as 0% activity to calculate an inhibition ratio of each compound. The measurement was performed for a 1 μmol/L solution of each compound.

PI3Kγ [3] = target: T2, PI3Kγ; assay: PI3Kγ inhibitory activity (Ki value); type: biochemical; details: read-out: PI3Kγ Ki value
Procedure: The PI3Kγ inhibitory activity (Ki value) of a compound was evaluated according to the following procedure:
5 μL of a compound solution containing 10% DMSO and […] of a compound was changed to 5 μL of a compound solution containing 10% DMSO and either 200, 64, 20, 6.4, 2, 0.64, or 0.20 μmol/L of the compound (optionally, this is diluted to a lower concentration). Using a method similar to the method for measuring PI3Kγ inhibitory activity, inhibition ratios of PI3Kγ were measured in the presence of the compound at 50, 16, 5, 1.6, 0.5, 0.16, and 0.05 μmol/L (optionally, a lower concentration). Then an IC50 value was calculated by a logistic approximation method or the linear regression method using two concentrations that cross 50% inhibition. Separately, the ATP concentration in the reaction solution (40 μmol/L ATP, 10 mmol/L MgCl2, 5 mmol/L DTT) at the time of the start of a reaction in the absence of the compound was changed to 80, 40, 20, 10, 5, 2.5, 1.25, or 0.625 μmol/L. Then, HTRF ratios were measured by a similar method. The value obtained by subtracting the HTRF ratio at each ATP concentration from the HTRF ratio in the absence of PI-3 kinase y was defined as the value obtained by multiplying reaction rate (v) at each ATP concentration with a constant. The Michaelis-Menten constant Km was then calculated by the Lineweaver-Burk plot method. The Ki value of a compound was calculated by the following formula wherein “μM” denotes “μmol/L.”
Ki value ═IC50 value/(1+test ATP concentration (μM)/Km (μM))

[4] = Metabolic stability test (pooled human liver microsome); type: in vitro ADME; details: percentage of test compound remained after 30 minutes, pooled human liver microsome 0.5 mg protein/mL, 1 mmol/L NADPH, 37° C., compound 0.5 μM
How it was run: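 Pooled human liver microsomes (0.5 mg protein/mL) incubated with compound and 1 mmol/L NADPH at 37° C. in pH 7.4 Tris buffer for 0 or 30 min. Parent quantified by LC/MS/MS after methanol/acetonitrile quench; value is % remaining at 30 min versus 0 min.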

| IC50 at 15 min [1] | inhibition at 10 µM (PI3Kγ [2]) | SMILES | MBI (CYP3A4) | other results |
| --- | --- | --- | --- | --- |
| ≥ 10 µM | 93% | COc1cc(N2CCc3nc(NC(=O)Nc4ccccc4C(C)=O)sc3C2)nc(OC)n1 [Compound I-9] | (−) (When 3 μmol/L or less, the compound is shown as (−)) | – |
| > 20 µM | ≥ 95% | CC(C)NC(=O)c1ccccc1NC(=O)Nc1nc2c(s1)CN(c1ccc(S(C)(=O)=O)cc1)CC2 [Compound I-204] | (−) (When 3 μmol/L or less, the compound is shown as (−)) | – |
| ≥ 10 µM | – | CC(=O)c1cccc(-c2ccc3nc(NC(=O)Nc4ccccc4N4CCCC4=O)nn3c2)c1 [Compound I-224] | – | – |

Further lines, the molecule ahead of its results:

| SMILES | IC50 at 15 min [1] | inhibition at 10 µM (PI3Kγ [2]) | MBI (CYP3A4) | other results |
| --- | --- | --- | --- | --- |
| COCCNC(=O)c1ccccc1NC(=O)Nc1nc2c(s1)CN(c1cc(OC)nc(OC)n1)CC2 [Compound I-86] | ≥ 10 µM | ≥ 95% | (−) (When 3 μmol/L or less, the compound is shown as (−)) | – |
| COc1cc(N2CCc3nc(NC(=O)Nc4ccc(F)cc4C(=O)NC(C)C)sc3C2)cnc1OC [Compound I-105] | ≥ 10 µM | – | – | – |
| CNS(=O)(=O)c1cncc(N2CCc3nc(NC(=O)Nc4ccccc4C(=O)NC(C)C)sc3C2)c1 [Compound I-129] | – | ≥ 95% | (−) (When 3 μmol/L or less, the compound is shown as (−)) | inhibition at 10 min, 1 µM (hERG channel (IKr)): 5.5%; inhibition at 1 µM (AKT phosphorylation): ≥ 95% |
| Cc1nc(NC(=O)Nc2ccccc2C(=O)NC(C)C)sc1-c1csc(S(=O)(=O)N2CCC(O)CC2)c1 [Compound I-146] | – | 77% | – | Ki (PI3Kγ [3]): 0.047 µM; inhibition at 1 µM (AKT phosphorylation): ≥ 95% |
| COc1cc(N2CCc3nc(NC(=O)Nc4ccccc4C(O)CCC(C)C)sc3C2)nc(OC)n1 (stereo not shown) [Compound I-117] | > 20 µM | – | – | – |
| CC(CO)NC(=O)c1ccccc1NC(=O)Nc1nc2c(s1)CN(c1cccc(F)c1)CC2 (stereo not shown) [Compound I-115] | ≥ 10 µM | ≥ 95% | – | hLMS_ox(at 0.5 μM) % [4]: 84.7% |
